The results in this text go back to article PMC8165160, “Substrate Specificities and Inhibition Pattern of the Solute Carrier Family 10 Members NTCP, ASBT and SOAT” (Frontiers in Molecular Biosciences, 2021).

Counter-ions that a name gives are not always drawn.

One test addresses T1, SOAT (Homo sapiens, UniProt Q3KNW5).
T1 construct: The full-length open reading frames of NTCP, ASBT, and SOAT were cloned; expressed in transfected cells; host or cells: Flp-In T-REX HEK293 (SOAT-HEK293), tetracycline-induced
T1 sequence (Q3KNW5 1-377): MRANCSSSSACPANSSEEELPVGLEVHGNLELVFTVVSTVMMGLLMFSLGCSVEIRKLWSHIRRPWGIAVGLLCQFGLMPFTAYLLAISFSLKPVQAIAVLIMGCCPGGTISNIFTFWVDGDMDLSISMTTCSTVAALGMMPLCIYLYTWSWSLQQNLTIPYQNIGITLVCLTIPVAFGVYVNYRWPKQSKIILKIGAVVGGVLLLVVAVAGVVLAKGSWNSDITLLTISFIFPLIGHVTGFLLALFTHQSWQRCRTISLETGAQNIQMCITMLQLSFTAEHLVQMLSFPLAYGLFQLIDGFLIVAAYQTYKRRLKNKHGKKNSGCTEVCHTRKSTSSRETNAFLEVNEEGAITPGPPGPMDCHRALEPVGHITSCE
The experiment in a line: Substrate screening: sodium-dependent uptake of radiolabeled compounds in SOAT-HEK293 cells. The settings on record: SOAT-HEK293, vs sodium-free control. In kind it is cell-based. On the procedure:
Stably SLC10 transporter transfected NTCP-HEK293, ASBT-HEK293, SOAT-HEK293 cells and the HEK293-FlpIn maternal cell line were seeded on 24-well plates (if not stated otherwise for individual assays). Well plates were coated with poly-D-lysine prior to seeding of 125,000 cells per well. Cells were grown with 1 ml of standard medium per well with or without tetracycline ([…]) for 72 h to induce carrier expression before respective assays were started. HEK293-FlpIn cells were cultivated with standard medium and served as control.
(§1) Uptake experiments were initiated by replacing the preincubation buffer by 500 μL transport buffer containing the radiolabeled test compound and were performed at 37°C. Transport was terminated by removing the transport buffer and washing five-times with ice-cold PBS. Cell monolayers were lysed in 1 N NaOH with 0.1% SDS and the cell-associated radioactivity was determined by liquid scintillation counting.
FIGURE 1 Comparative substrate screening for bile acids and sulfated steroids in NTCP-, ASBT-, and SOAT-HEK293 cells. Transport assays were performed with the indicated substrates in NTCP-HEK293, ABST-HEK293, SOAT-HEK293, and HEK293-FlpIn cells. Cells were washed and equilibrated with Na^+-containing transport buffer (filled bars) or with Na^+-free transport buffer (open bars) at 37°C. For uptake, cells were incubated with radiolabeled steroid compounds at a final concentration of 200 nM in Na^+-containing or Na^+-free transport buffer for 10 min. Radiolabeled bile acids were used at 1 µM concentrations and transport was analyzed over 30 min. HEK293-FlpIn cells served as additional controls. After the indicated time intervals, cells were washed with ice-cold PBS, lysed and subjected to liquid scintillation counting. […] 3-OH, trihydroxylated BAs; 2-OH, dihydroxylated BAs; 1-OH, monohydroxylated BAs.

Test [1] deals with T2, NTCP (Homo sapiens, UniProt Q14973).
T2 sequence (Q14973 1-349): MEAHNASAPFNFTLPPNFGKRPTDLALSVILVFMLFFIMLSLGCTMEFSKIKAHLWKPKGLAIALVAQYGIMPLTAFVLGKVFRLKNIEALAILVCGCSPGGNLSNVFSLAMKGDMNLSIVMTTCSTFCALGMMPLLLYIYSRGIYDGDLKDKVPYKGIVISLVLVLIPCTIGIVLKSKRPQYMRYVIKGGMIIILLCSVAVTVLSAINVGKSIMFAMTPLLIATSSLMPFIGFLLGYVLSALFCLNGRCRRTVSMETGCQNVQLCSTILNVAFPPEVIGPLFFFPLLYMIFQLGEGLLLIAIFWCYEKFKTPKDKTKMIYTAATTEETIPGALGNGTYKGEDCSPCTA
Description: Transport inhibition in NTCP-HEK293 cells. As to conditions: substrate inhibitors, 1 min after 5 min preincubation.

The target of test [2] is T2, NTCP. Description: Transport kinetics (concentration-dependent uptake) in NTCP-HEK293 cells. The format is cell-based. Also on record: The full-length open reading frames of NTCP, ASBT, and SOAT were cloned; expressed in transfected cells; host or cells: Flp-In T-REX HEK293 (NTCP-HEK293), tetracycline-induced. The settings on record: uptake via NTCP, 1 min, 37°C. As to the method:
as §1
(§2) FIGURE 2 NTCP, ASBT, and SOAT transport kinetics. Concentration-dependent uptake was analyzed in NTCP-HEK293, ASBT-HEK293, and SOAT-HEK293 cells for the indicated substrates at increasing substrate concentrations. Stably transfected HEK293 cells were pretreated with 1 μg/ml tetracycline to induce carrier expression. HEK293-FlpIn cells were used as control. Uptake was analyzed for 1 min at 37°C. Afterward, the medium was removed and each cell monolayer was washed and processed to determine the protein content and cell-associated radioactivity. Specific uptake was calculated by subtracting non-specific uptake of the HEK293-FlpIn control cells (open squares) from uptake into carrier-overexpressing HEK293 cells (filled squares) and is shown by broken lines. The values represent means ± SD of duplicate experiments, each with triplicate determinations (n = 6).

In the next test the target is T3, ASBT (Homo sapiens, UniProt Q12908).
T3 construct: The full-length open reading frames of NTCP, ASBT, and SOAT were cloned; expressed in transfected cells; host or cells: Flp-In T-REX HEK293 (ASBT-HEK293), tetracycline-induced
T3 sequence (Q12908 1-348): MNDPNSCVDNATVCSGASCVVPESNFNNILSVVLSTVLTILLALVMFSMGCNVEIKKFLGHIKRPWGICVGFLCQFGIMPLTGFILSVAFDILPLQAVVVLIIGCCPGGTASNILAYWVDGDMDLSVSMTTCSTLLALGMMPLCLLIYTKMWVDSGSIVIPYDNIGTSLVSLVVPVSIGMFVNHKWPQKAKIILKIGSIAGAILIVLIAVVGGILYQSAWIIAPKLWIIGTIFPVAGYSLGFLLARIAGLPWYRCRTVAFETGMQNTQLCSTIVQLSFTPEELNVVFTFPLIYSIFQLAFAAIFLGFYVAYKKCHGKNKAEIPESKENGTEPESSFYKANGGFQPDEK
The experiment in a line: Transport kinetics (concentration-dependent uptake) in ASBT-HEK293 cells. In kind it is cell-based. The settings on record: uptake via ASBT, 1 min, 37°C. As to the method:
as §1, §2

[3] abbreviates: NTCP IC50, substrate [3H]DHEAS, 200 nM [3H]DHEAS.
The mark [4] stands for this setting: NTCP IC50, substrate [3H]TC, 200 nM [3H]TC.
Setting [5] is: NTCP IC50, substrate [3H]TLC, 200 nM [3H]TLC.

In the case of `C[C@]12CC[C@H](OS(=O)(=O)O)CC1=CC[C@@H]1[C@@H]2CC[C@]2(C)C(=O)CC[C@@H]12` [DHEAS, Dehydroepiandrosterone sulfate], at SOAT (radiolabeled steroid compounds 200 nM, 10 min), the “Transport activity grading SOAT (mean uptake)” value is “++ (“++” for values between 10 and 100)”. Further, the figures for the IC50 against NTCP [1] (setting [3]), on NTCP [1] (setting [4]) and against NTCP [1] (setting [5]) were 3400 nM, 21500 nM and 432000 nM, respectively. Besides, at NTCP [2], the “Apparent K m” value came to 56.1 ± 8.0 µM. Moreover, at NTCP [2], the V max was found to be 2198 ± 101.7 pmol/mg protein/min.

On to `C[C@H](CCC(=O)NCCS(=O)(=O)O)[C@H]1CC[C@H]2[C@@H]3[C@H](O)C[C@@H]4C[C@H](O)CC[C@]4(C)[C@H]3C[C@H](O)[C@]12C` [Taurocholic acid], for which, at ASBT, the “Apparent K m” value worked out at 14.7 ± 1.5 µM and the V max is given as 1821 ± 75.1 pmol/mg protein/min. Further, on NTCP [2], the “Apparent K m” value came to 13.1 ± 0.8 µM and the V max amounted to 2395 ± 59 pmol/mg protein/min.

Regarding `C[C@H](CCC(=O)NCCS(=O)(=O)O)[C@H]1CC[C@H]2[C@@H]3CC[C@@H]4C[C@H](O)CC[C@]4(C)[C@H]3CC[C@]12C` [Taurolithocholic acid], the “Transport activity grading SOAT (mean uptake)” value on SOAT (radiolabeled bile acids 1 µM, 30 min) was “++ (“++” for values between 500 and 1000)”. Also, the “Apparent K m” value is listed as 5.9 ± 1.8 µM on ASBT and 18.4 ± 2.3 µM on NTCP [2]. In addition, the V max was 1585 ± 99.7 pmol/mg protein/min at ASBT and 5915 ± 189 pmol/mg protein/min at NTCP [2]. Also, the IC50 is 1800 nM against NTCP [1] (setting [3]), 1700 nM at NTCP [1] (setting [4]) and 1400 nM on NTCP [1] (setting [5]).

One may read the IC50 as the concentration at which inhibition is half-maximal. Lower therefore signals greater potency.
